Like-named read-outs stand apart in the source and are kept apart here.
Tests used:
[1] = Microsomal stability assay, mouse liver microsomes; details: for microsomal CLint at 0.1 uM: male, CD-1, mouse, liver microsomes, pH 7.4, Microsomal Stability Mouse Clint, 0.1 mg/mL microsomes, 0.1 uM compound
[2] = target: T1, DNA-PK (Homo sapiens, UniProt P78527); assay: DNA-PK Assay for Biochemical Enzymatic Inhibition (ADP Glo Kinase assay); details: Table 1
T1 construct: purchased Invitrogen PR9107A
Procedure: A biochemical assay was performed to identify IC50 values against DNA-PK activity in a two-step reaction with a kinase reaction followed by ADP Glo™ Kinase assay Kit (Promega V9102).
Three-fold serial dilutions of compounds in DMSO were prepared in kinase assay buffer (50 mM HEPES pH 7.5, 20 mM MgCl2, 100 mM KCl, 50 μM DTT, 10 μg/ml calf thymus DNA, 0.01% Tween 20). Kinase assay buffer was used to prepare compound treatments to 0.02% DMSO (dimethyl sulphoxide) content. DMSO controls were prepared to produce a maximum and minimum luminescence signal for normalization. Substrate (Anaspec, AS-60210-5) and ATP (Promega V9102) and ATP mix was prepared by dilution in kinase assay buffer for 434.4 μM and 64.4 μM final assay concentrations, respectively. Compounds and control were added to 25 ng DNA-PK enzyme (Invitrogen, PR9107A) diluted in kinase buffer in assay plate (Corning 267459) and incubated for 15 minutes at room temperature prior to addition of substrate and ATP mix.
Throughout the assay, each time a reagent was added to the microplate, it was centrifuged for 1 minute at 1300 rcf. All reagents were added, and incubations carried out at room temperature. The reaction was then incubated for 60 minutes. ADP-ATP standards at 0, 4, 10, 40, 80, and 100% ADP (prepared as specified in the ADP Glo™ Kinase assay kit) were also added to the microplate at a volume equal to the total kinase reaction. The ADP Glo™ Kinase Assay kit was then used to quantify DNA-PK activity: following the 60-minute incubation, a 1:1 volume of ADP Glo reagent was added to all wells, then following a further 45-minute incubation, a 1:1 volume of Kinase Detection Reagent was added to all wells. After this two-step assay, plates were incubated in a Synergy-Neo2 plate reader for 30 minutes with gentle shaking, followed by endpoint luminescent read Luminescence data was normalized by subtracting the background signal and expressing all background-adjusted values as a percentage of the average maximum signal. The data was then expressed as percent inhibition by subtracting from 100% (i.e. maximum luminescent signal will be 0% inhibition) and the resulting data plotted against ten concentration points on a logarithmic scale, using GraphPad Prism. Non-linear regression analysis was performed on each concentration response curve and the log [inhibitor] vs response—variable slope (four parameters) equation was selected to generate IC50 values.

[3] = target: T2, pDNA-PK ser2056 induction in HCT116 spheroids (Homo sapiens, UniProt P78527); assay: Multicellular tumour spheroid + radiation, pDNA-PK inhibition, HCT116; type: cell-based; details: 20 Gy
T2 construct: endogenous in cells; host or cells: HCT116 multicellular tumour spheroids
Procedure: Multicellular tumour spheroids determination of compound inhibition of pDNA-PK induction following radiation. Tumour spheroids were grown to approximately 0.5 mm in diameter and irradiated with 20 Gy in combination with inhibitor test compounds to determine their potency. Inhibitor concentration for 50% reduction in pDNA-PK induction (IC50) was determined via immunohistochemical staining in spheroid cryosections taken 2 hours following radiation.
Spheroid, Cell Line: […], Immunohistochemical endpoint, pDNA-PK inhibition, EC50 in μm.
(§1) Spheroid+radiation pDNA-PK. Radiation: 20 Gy. Drug: serial dilution 5 or 10 μM down to 3.5 nM (11 wells). Spheroids: 3-6 spheroids per well (300-500 μm diameter). 20% O2 and 5% CO2. 96 well plate format.
Protocol: pre-incubate 1 hours with drug, irradiate with 20 Gy, post-incubate 2 hours with drug, freeze and cryosection ×3 replicates.
Endpoint: fluorescent immunostin pDNA-PK ser2056 and image on microscope.
Analysis: determine EC50 concentration that decreases pDNA-PK induction by 50% after radiation.
Multicellular tumour spheroids determination of compound inhibition of pDNA-PK induction following radiation. Tumour spheroids were grown to approximately 0.5 mm in diameter and irradiated with 20 Gy in combination with inhibitor test compounds to determine their potency. Inhibitor concentration for 50% reduction in pDNA-PK induction (IC50) was determined via immunohistochemical staining in spheroid cryosections taken 2 hours following radiation. For cell survival endpoint 8 Gy radiation was used and 3 hours following radiation spheroids were dissociated, counted and plated for colony forming endpoint.
as §1, with “format. Endpoint: fluorescent immunostain pDNA-PK ser2056 and image on microscope. Analysis: determine EC50 concentrations that decreases pDNA-PK induction […] after irradiation.” for “format.”
Multicellular tumour spheroids were used to determine potency of test compounds in a 3D tissue environment using inhibition of pDNA-PK induction following radiation or cell survival as the endpoint. For the pDNA-PK endpoint HCT116 or FaDU tumour spheroids were grown to approximately 0.5 mm in diameter and irradiated with 20 Gy in combination with inhibitor test compounds to determine their potency. Experiments were carried out in 96 well plates containing 0.7 mls of MEM media containing 10% FBS and 10 mM glucose under 20% O2 & 5% CO2 at 37° C. Following dilution of compounds 1:1000 from DMSO stocks, compounds were serially diluted from 10 μM down to 3.5 nM and 5-10 spheroids added. 96 well plates were constantly stirred to avoid spheroids settling during the course of the experiment. The inhibitor concentration for 50% reduction in pDNA-PK induction (EC50) was determined via immunohistochemical staining in spheroid cryosections taken 2 hours following radiation using anti-pDNA-PK (ser 2056) and fixed immediately in formalin following sectioning. For cell survival endpoint 8 Gy radiation was used and, 3 hours following radiation, spheroids were dissociated, counted and plated for colony forming endpoint. Data presented in the table compound potency as EC50 [μM].

[4] = target: T3, DNA-PK phosphorylation at Serine 2056 (Homo sapiens, UniProt P78527); assay: Cellular Assay for Inhibition of DNA-PK Phosphorylation at Serine 2056 (FaDu cells, neocarzinostatin, sandwich ELISA); type: cell-based; details: Table 1
T3 construct: host or cells: FaDu
Method in brief: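 FaDu cells were pretreated with compound (0.3% DMSO) for 1 h, then exposed to neocarzinostatin at 1 μg/mL final for 2 h to induce DSBs. Protein-normalized lysates were assayed by MSD sandwich ELISA for total and pSer2056 DNA-PK. IC50 came from variable-slope fits of % inhibition relative to DMSO and NCS controls.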

[5] = Example 7, spheroid, cell line HCT115 [sic], 20% O2, read-out: EC50 (pDNA-PK inhibition, immunohistochemical endpoint)
[6] = Example 9 Study 2, 20% O2, read-out: Spheroid Cell line: HCT116 Immunohistochemical endpoint pDNA-PK inhibition EC50
[7] = Example 8, spheroid, read-out: Cell line: HCT116 Immunohistochemical endpoint pDNA-PK inhibition EC50

SMILES | Microsomal Stability (mouse) % rem. 60 min [1] | microsomal CLint at 0.1 uM [1] | IC50 [2] | EC50 [3, 5] | EC50 [3, 6] | IC50 [4] | EC50 [3, 7]
C[C@]1(n2ccnc2)CC[C@@H](Oc2nc(N3CCOCC3)cc3ncccc23)CC1 [Compound 11, 4-(5-(((1s,4s)-4-(1H-imidazol-1-yl)-4-methylcyclohexyl)oxy)-1,6-naphthyridin-7-yl)morpholine] | E (% remaining = 0-25%) | > 116 µL/min/mg | 10 to 150 nM |  |  |  | 
c1cnc2cc(N3CCOCC3)nc(O[C@H]3CC[C@@H](n4cnnn4)CC3)c2c1 [Compound 17l, 4-(5-(((1s,4s)-4-(1H-tetrazol-1-yl)cyclohexyl)oxy)-1,6-naphthyridin-7-yl)morpholine] | E (% remaining = 0-25%) | > 116 µL/min/mg |  |  |  |  | 
c1cnc2cc(N3CCOCC3)nc(O[C@H]3CC[C@@H](Nc4ccc5nccn5n4)CC3)c2c1 [Compound 90, N-((1s,4s)-4-((7-Morpholino-1,6-naphthyridin-5-yl)oxy)cyclohexyl)imidazo[1,2-b]pyridazin-6-amine] |  |  | 0.5 to 1 nM | 1000 to 10000 nM | 1000 to 10000 nM | 100 to 1000 nM | 
Cc1cc2ncnn2cc1N[C@H]1CC[C@@H](Oc2nc(N3CCOCC3)cc3ncccc23)CC1 [Compound 91, 7-Methyl-N-((1s,4s)-4-((7-morpholino-1,6-naphthyridin-5-yl)oxy)cyclohexyl)-[1,2,4]triazolo[1,5-a]pyridin-6-amine] |  |  | 1 to 10 nM | 10000 to 100000 nM | 10000 to 100000 nM | 1000 to 10000 nM | 
c1cnc2cc(N3CCOCC3)nc(O[C@H]3CC[C@@H](Nc4ccc5ncnn5c4)CC3)c2c1 [Compound 92, N-((1s,4s)-4-((7-Morpholino-1,6-naphthyridin-5-yl)oxy)cyclohexyl)-[1,2,4]triazolo[1,5-a]pyridin-6-amine] |  |  | 1 to 10 nM | 1000 to 10000 nM | 1000 to 10000 nM | 100 to 1000 nM | 
CCCC(=O)N[C@H]1CC[C@@H](Oc2nc(N3CCOCC3)cc3ncccc23)CC1 [Compound 103, N-((1s,4s)-4-((7-Morpholino-1,6-naphthyridin-5-yl)oxy)cyclohexyl)butyramide] |  |  | 1 to 10 nM | 10000 to 100000 nM | 10000 to 100000 nM | 100 to 1000 nM | 10000 to 100000 nM
O=C(N[C@H]1CC[C@@H](Oc2nc(N3CCOCC3)cc3ncccc23)CC1)c1ccccc1 [Compound 110, N-((1s,4s)-4-((7-Morpholino-1,6-naphthyridin-5-yl)oxy)cyclohexyl)benzamide] |  |  | < 0.5 nM | 1000 to 10000 nM | 1000 to 10000 nM | < 100 nM | 1000 to 10000 nM

Second part, the molecule after the results:

Microsomal Stability (mouse) % rem. 60 min [1] | microsomal CLint at 0.1 uM [1] | IC50 [2] | EC50 [3, 5] | EC50 [3, 6] | IC50 [4] | EC50 [3, 7] | SMILES
 |  | 1 to 10 nM | 10000 to 100000 nM | 10000 to 100000 nM | 1000 to 10000 nM | 10000 to 100000 nM | O=C(N[C@H]1CC[C@@H](Oc2nc(N3CCOCC3)cc3ncccc23)CC1)C1CCCO1 (stereo partly drawn) [Compound 134, N-((1s,4s)-4-((7-Morpholino-1,6-naphthyridin-5-yl)oxy)cyclohexyl)tetrahydrofuran-2-carboxamide]
 |  | 0.5 to 1 nM | 1000 to 10000 nM | 1000 to 10000 nM | 100 to 1000 nM |  | O=C(N[C@H]1CC[C@@H](Oc2nc(N3CCOCC3)cc3ncc(Br)cc23)CC1)c1ncccn1 [Compound 176, N-((1s,4s)-4-((3-bromo-7-morpholino-1,6-naphthyridin-5-yl)oxy)cyclohexyl)pyrimidine-2-carboxamide]
 |  | 1 to 10 nM | 10000 to 100000 nM | 10000 to 100000 nM | 1000 to 10000 nM |  | CC(C)S(=O)(=O)Nc1cnc2cc(N3CCOCC3)nc(O[C@H]3CC[C@@H](Nc4ncccn4)CC3)c2c1 [Compound 187, N-(7-morpholino-5-(((1s,4s)-4-(pyrimidin-2-ylamino)cyclohexyl)oxy)-1,6-naphthyridin-3-yl)propane-2-sulfonamide]
 |  | < 0.5 nM | 1000 to 10000 nM | 1000 to 10000 nM | 100 to 1000 nM |  | CCS(=O)(=O)Nc1cnc2cc(N3CCOCC3)nc(O[C@H]3CC[C@@H](Nc4ncccn4)CC3)c2c1 [Compound 188, N-(7-morpholino-5-(((1s,4s)-4-(pyrimidin-2-ylamino)cyclohexyl)oxy)-1,6-naphthyridin-3-yl)ethanesulfonamide]
 |  | 1 to 10 nM | 10000 to 100000 nM | 10000 to 100000 nM | 1000 to 10000 nM |  | CCCS(=O)(=O)Nc1cnc2cc(N3CCOCC3)nc(O[C@H]3CC[C@@H](Nc4ncccn4)CC3)c2c1 [Compound 189, N-(7-morpholino-5-(((1s,4s)-4-(pyrimidin-2-ylamino)cyclohexyl)oxy)-1,6-naphthyridin-3-yl)propane-1-sulfonamide]
 |  | 0.5 to 1 nM | 500 to 1000 nM | 500 to 1000 nM | < 100 nM |  | CN(c1ncccn1)[C@H]1CC[C@@H](Oc2nc(N3CCOCC3)cc3ncc(NS(C)(=O)=O)cc23)CC1 [Compound 198, N-(5-(((1s,4s)-4-(methyl(pyrimidin-2-yl)amino)cyclohexyl)oxy)-7-morpholino-1,6-naphthyridin-3-yl)methanesulfonamide]
 |  | 0.5 to 1 nM | 1000 to 10000 nM | 1000 to 10000 nM | 100 to 1000 nM |  | N#Cc1cnc2cc(N3CCOCC3)nc(O[C@H]3CC[C@@H](Nc4ncccn4)CC3)c2c1 [Compound 200a, 7-morpholino-5-(((1s,4s)-4-(pyrimidin-2-ylamino)cyclohexyl)oxy)-1,6-naphthyridine-3-carbonitrile]
 |  | 1 to 10 nM | 10000 to 100000 nM | 10000 to 100000 nM | 10000 to 30000 nM |  | COc1cnc(N[C@H]2CC[C@@H](Oc3nc(N4CCOCC4)cc4ncc(I)cc34)CC2)nc1 [Compound 201, N-((1s,4s)-4-((3-iodo-7-morpholino-1,6-naphthyridin-5-yl)oxy)cyclohexyl)-5-methoxypyrimidin-2-amine]
